Source: patent publication US12410161B2, “Tetrahydrobenzo-quinoline sulfonamides derivative compounds” (UCB Biopharma SRL, priority 2019, dated 2025)

Test: Thermal stability note in synthesis of Example 2
Assay type: physicochemical
Details: observation on isolated title compound
Procedure: To a solution of Intermediate 27 (42 mg, 0.068 mmol) in N,N-dimethylformamide (1.5 mL) a solution of formic hydrazide (14 mg, 0.229 mmol) in N,N-dimethylformamide (0.3 mL) followed by mercury(II) chloride (62 mg, 0.229 mmol) were introduced. After 5 minutes stirring at room temperature under an atmosphere of nitrogen, a solution of triethylamine (23 mg, 0.229 mmol) in N,N-dimethylformamide (0.2 mL) was introduced and the reaction warmed to 80° C. for 1.7 hours. After cooling to room temperature, the reaction mixture was diluted with dichloromethane (10 mL), kieselguhr (1.0 g) was introduced, and the suspension stirred for 10 minutes. The suspension was then filtered and the filter-cake washed with dichloromethane (10 mL). Evaporation of the combined filtrates in-vacuo furnished a residue which was purified by low pH preparative liquid chromatography to furnish the title compound (2.3 mg at 88% purity LCMS-UV215, 5% yield) as a colourless solid. LCMS [m+H]^+ 553, RT 2.07 min (Method 3).

With `Cc1cc(Nc2nncn2C2CCc3cc4cnc(C5CC5)cc4c(S(=O)(=O)NCC(C)(C)F)c3C2)n(C)n1` (stereo not shown) [Example 2, 3-cyclopropyl-7-[3-[(2,5-dimethylpyrazol-3-yl)amino]-1,2,4-triazol-4-yl]-N-(2-fluoro-2-methylpropyl)-6,7,8,9-tetrahydrobenzo[g]isoquinoline-5-sulfonamide] the thermal stability was “thermally unstable”.
